Test results from the supplement of paper PMC10307832.

What was measured:
Assay in all cases: relative viability (nuclei count vs DMSO), 5 days (fraction); higher = more cells survive
[1] = compound: Cc1cnc(CNC(=O)c2c(=O)c3ccc(N4CCCN(C)CC4)nc3n3c2sc2ccccc23)cn1 [CX-5461] + CC1(C)CCC(c2ccc(Cl)cc2)=C(CN2CCN(c3ccc(C(=O)NS(=O)(=O)c4ccc(N[C@H](CCN5CCOCC5)CSc5ccccc5)c(S(=O)(=O)C(F)(F)F)c4)cc3)CC2)C1 [Navitoclax] (partner 0.5 µM)
Summary of the method: (§1)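 Five library-drug doses in √10 steps were combined with a fixed anchor-drug dose, or a single drug was given alone, by pin tool to lung cancer cell lines in 1536-well plates the day after seeding. Nuclei were stained and counted after 5 days. Relative viability is the nuclei count in treated wells over that in vehicle wells, taken as the median of duplicate plates.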

[2] = compound: O=C(Nc1cc(C(F)(F)F)cc(C(F)(F)F)c1)c1cc(Cl)ccc1O [IMD-0354] + CCNC(=O)c1noc(-c2cc(C(C)C)c(O)cc2O)c1-c1ccc(CN2CCOCC2)cc1 [Luminespib] (partner 0.01 µM)
Summary of the method: as §1

[3] = compound: O=C(Nc1cc(C(F)(F)F)cc(C(F)(F)F)c1)c1cc(Cl)ccc1O [IMD-0354] + Cc1nc(Nc2ncc(C(=O)Nc3c(C)cccc3Cl)s2)cc(N2CCN(CCO)CC2)n1 [Dasatinib] (partner 0.075 µM)
Summary of the method: as §1

[4] = compound: Cc1cnc(CNC(=O)c2c(=O)c3ccc(N4CCCN(C)CC4)nc3n3c2sc2ccccc23)cn1 [CX-5461] + CS(=O)(=O)CCNCc1ccc(-c2ccc3ncnc(Nc4ccc(OCc5cccc(F)c5)c(Cl)c4)c3c2)o1 [Lapatinib] (partner 2 µM)
Summary of the method: as §1

Cell Line	relative viability ([1]; first compound 0.01 µM)	relative viability ([1]; first compound 0.03162 µM)	relative viability ([1]; first compound 0.1 µM)	relative viability ([1]; first compound 0.3162 µM)	relative viability ([1]; first compound 1 µM)	relative viability ([2]; first compound 0.04 µM)	relative viability ([2]; first compound 0.1265 µM)	relative viability ([2]; first compound 0.4 µM)	relative viability ([2]; first compound 1.265 µM)	relative viability ([2]; first compound 4 µM)	relative viability ([3]; first compound 0.04 µM)	relative viability ([3]; first compound 0.1265 µM)	relative viability ([3]; first compound 0.4 µM)	relative viability ([3]; first compound 1.265 µM)	relative viability ([3]; first compound 4 µM)	relative viability ([4]; first compound 0.01 µM)	relative viability ([4]; first compound 0.03162 µM)	relative viability ([4]; first compound 0.1 µM)	relative viability ([4]; first compound 0.3162 µM)	relative viability ([4]; first compound 1 µM)
NCI-H1993	0.946	1	0.887	0.871	0.922	0.852	0.701	0.623	0.483	0.619	0.562	0.652	0.448	0.543	0.51	0.769	0.84	0.881	0.802	0.762
NCI-H520	1.09	0.891	1.05	1.05	0.793	0.199	0.21	0.198	0.243	0.225	0.21	0.185	0.186	0.132	0.163	0.782	0.692	0.784	0.619	0.491
NCI-H647	1.26	1.27	1.19	0.709	0.7	0.303	0.261	0.166	0.111	0.0881	0.263	0.0872	0.132	0.0483	0.0895	1.24	1.1	1.01	0.949	0.226
NCI-H1792	0.657	0.674	0.696	0.692	0.468	0.465	0.411	0.35	0.302	0.258	0.906	0.69	0.545	0.406	0.416	0.919	1.08	0.923	0.85	0.788
SW 1573	0.974	0.998	1.05	0.872	1.12	0.189	0.209	0.218	0.138	0.127	0.763	0.449	0.242	0.128	0.0881	1.2	1.26	0.989	0.691	0.546
NCI-H1650	1.29	1.02	–	1.23	0.2	0.215	0.208	0.171	0.196	0.176	0.368	0.33	0.183	0.142	0.137	0.714	0.714	–	0.229	0.19
NCI-H2009	1.18	1.19	1.08	1.18	0.765	1.09	0.923	0.675	0.148	0.159	0.367	0.292	0.263	0.109	0.0808	0.906	1.04	0.584	0.39	0.466
LOU-NH91	0.7	0.694	0.735	0.472	0.575	0.348	0.334	0.32	0.176	0.213	0.616	0.555	0.258	0.102	0.205	0.63	0.811	0.747	0.442	0.68
NCI-H2405	0.957	0.92	0.997	0.431	0.743	0.752	0.669	0.671	0.358	0.288	0.213	0.242	0.217	0.249	0.116	1.18	1.07	1.18	0.541	0.808
LCLC-97TM1	0.405	0.523	0.325	–	0.467	0.735	0.705	0.529	0.251	0.148	0.881	0.77	0.386	0.238	0.145	1.17	1.02	0.871	–	0.366
NCI-H596	0.928	1.01	1.18	0.98	1.02	1.01	1	0.508	0.306	0.275	0.728	0.608	0.435	0.63	0.261	1.07	1.09	0.96	1.1	0.628
NCI-H727	0.493	0.365	0.464	0.354	0.31	0.344	0.295	0.371	0.191	0.302	0.325	0.4	0.326	0.256	0.314	0.862	0.997	0.682	0.729	0.631
H3255	0.626	0.484	0.533	0.273	0.397	0.776	0.845	0.778	0.293	0.285	0.303	0.348	0.264	0.235	0.282	0.237	0.236	0.263	0.167	0.236
LK-2	–	0.984	0.939	0.319	0.904	0.195	0.194	0.184	0.195	0.167	0.291	0.288	0.309	0.224	0.22	–	1.06	1.01	–	0.817
NCI-H1437	1.09	1.1	–	1.03	0.928	1.21	0.899	0.45	0.191	0.202	0.528	0.381	0.255	0.0882	0.144	0.779	0.869	–	0.519	0.528
LU99A	0.764	0.938	0.741	0.676	0.898	0.214	0.264	0.221	0.196	0.201	0.573	0.648	0.445	0.113	0.19	0.859	1.02	0.86	0.56	0.213
HCC-827	1.07	1.01	1.02	1.02	0.975	0.686	0.589	0.589	0.235	0.129	0.357	0.301	0.348	0.235	0.248	0.198	0.223	0.22	0.203	0.19
NCI-H1395	1.17	0.993	1.16	0.964	0.63	0.73	0.586	0.675	0.362	0.314	0.432	0.47	0.385	0.372	0.291	0.955	0.899	0.716	0.571	0.563
BEN	0.0792	0.0627	0.052	0.0668	0.066	0.159	0.533	0.256	0.161	0.139	0.319	0.315	0.246	0.227	0.165	0.77	0.647	0.821	0.487	0.54
NCI-H23	0.958	0.859	0.986	0.839	0.726	0.299	0.212	0.247	0.178	0.145	0.836	0.82	0.384	0.275	0.227	1.15	1.19	0.82	0.266	0.362
NCI-H1793	0.485	0.306	0.37	0.485	0.443	0.149	0.159	0.152	0.143	0.175	0.399	0.413	0.241	0.16	0.154	0.693	0.628	0.819	0.399	0.643
201T	1.18	1.22	1.21	1.18	1.19	1.19	1.04	0.678	0.638	0.278	0.625	0.586	0.479	0.283	0.346	1.01	1.06	1.03	0.82	0.981
NCI-H460	1.04	1.02	0.273	1.09	0.0167	0.0305	0.0328	0.0332	0.0223	0.0144	0.518	0.529	0.253	0.0582	0.0193	1.17	1.11	0.23	0.0503	0.0174
HCC-15	0.725	0.773	0.713	0.717	0.656	0.236	0.257	0.275	0.104	0.0925	0.613	0.571	0.375	0.094	0.164	0.886	0.914	0.869	0.264	0.605
EPLC-272H	1.28	1.3	1.11	–	1.13	0.51	0.322	0.409	0.22	0.131	0.511	0.279	0.353	0.121	0.0731	0.936	1.12	0.9	–	1.02
